Experimental data taken from patent US10683278B2 (JINAN UNIVERSITY, priority 2015, dated 2020).

Legend:
Assay type in all cases: cell-based
[1] = system: MDA-MB-231 cells; test: Wound-healing and transwell invasion and migration of MDA-MB-231 cells; settings: FIGS. 5 and 6
Description: Compounds were tested for their effects on EMT using routine transwell and wound-healing experiments.
MDA-MB-231 breast cancer cells were inoculated into a 6-well plate in 5×10^5 cells/well, and when the cells occupied 100% of the medium, the medium was removed, and a scratch of a constant width was drawn in the middle of the monolayer cell with a 200-μL pipette tip. The cells were washed three times with phosphate buffered saline (PBS) to remove cell debris, followed by addition of 2% FBS with or without TGF-β1 (10 ng/mL) and substances to be tested at different concentrations, and cultured in RPMI-1640 for 24 hours. At the time points of 0 and 24 hour, three scratch areas were selected, and examined and photographed using a phase contrast inverted fluorescence microscopy (CKX41; Olympus) and Image-ProPlus image capture software. The degree of scratch closure was calculated using Adobe Photoshop 7.0.1 software (Adobe Systems Inc., San Jose, Calif.). The final result is determined by averaging three results. […]
1. Cells were trypsinized and centrifuged, then resuspended and counted, and resuspended with serum-free medium, diluted to 5×10^4 to 5×10^5 cells/mL; AXL inhibitor solution at different concentrations were prepared with the cell suspension, and added into the upper chamber, and 800 μL of a medium containing 10% FBS was added into the lower chamber. […]

[2] = system: AXL phosphorylation in MDA-MB-231 cells; test: Western Blot, AXL kinase phosphorylation of MDA-MB-231 cells; settings: FIG. 1
Description: Effect of quinolone derivatives on AXL kinase phosphorylation of MDA-MB-231 and 4T1 cells A conventional Western Blot was used, which includes four steps: sample preparation; electrophoretic separation; membrane transfer of proteins; and immunological hybridization and developing (protein detection).
1. MDA-MB-231 cells were seeded into a 6-well plate at an appropriate density, cultured for 24 hours until the cell confluency reached about 80%, drug-containing medium at corresponding concentration was added respectively, and co-cultured for 2-24 hours.
2. The medium was discarded at a predetermined time point, the well plate was washed twice with precooled PBS at 4° C. and the residual liquid was washed away.
3. 1×SDS sample buffer (CST recommended, 6-well plate, 300 μL) was added, scraping all the cells in the dish with a cell scraper, and transferring same to a 1.5 mL of EP tube (operated on ice).
4. The cell lysate was sonicated for 10-15 seconds to cut off DNA, so as to reduce sample viscosity.
5. Boil the sample for 5 min.
6. 12000 g of samples were centrifuged at 4° C. for 5 min, and the supernatant was taken and stored at −20° C. or −80° C. for western blot analysis.
1. Electrophoretic separation: 15-20 μL of 8%-12% SDS-PAGE polyacrylamide gel was loaded, with 90 v electrophoresis for the upper gel, and 120 v electrophoresis for the lower gel.
2. Assembly and transferring of the sandwich: submerging the polyacrylamide gel in transfer buffer and equilibrated for 10 min. According to the size of polyacrylamide gel, PVDF membrane (Mili pore) and 6 pieces of filter paper were cut out and placed in transfer buffer and equilibrated for 10 min. The PVDF membrane needs to be immersed in methanol for 3-5 seconds. Placed in such sequence as sponge→3 layers of filter paper→gel→membrane→3 layers of filter paper→sponge. Ensure there are no bubbles.
3. Membrane transferring: the transfer tank was placed in an ice bath, and the sandwich was added. Ensure the gel facing the negative electrode, and the PVDF facing the positive electrode. 1× membrane transferring buffer was added and placed under the constant pressure, subjecting same to membrane transferring at 110 V for 0.5 to 2 h depending on the molecular weight of the protein to be tested.
4. Blocking: the PVDF membrane was removed after the membrane transferring, blocked with blocking solution (1×TBS, containing 0.5% Tween-20 and 5% skim milk powder), and shaked slowly for 2 h on a horizontal shaker.
5. Incubation of the primary antibody: after blocking, diluting the primary antibody (antibody AXL, phosphor-AXL, AKT, phosphor-AKT, GAPDH, etc.) at 1: 200-1:1000. The PVDF membrane and the antibody were incubated overnight in a wet box at 4° C. to allow sufficient binding of the antibody to the protein of interest.
6. […]

[3] = system: MDA-MB-231 cells; test: Immunofluorescence, EMT marker proteins in TGF-β1-induced MDA-MB-231 cells; settings: TGF-β1 (10 ng/ml); for expression of E-cadherin / expression of N-cadherin: 96 hours; for phosphorylation level of AXL: FIGS. 3 and 4
Description: Immunofluorescence experiments were used to determine the effect of the compounds on EMT marker proteins.
MDA-MB-231 cells were seeded onto a glass slide pre-placed in a 6-well plate, and then treated with compounds to be tested at different concentrations (0.04, 0.2, 1.5 μM) with or without TGF-β1 (10 ng/ml) for 96 hours. At room temperature, the cells were fixed with a 4% formaldehyde solution for 15 minutes, treated with 0.5% Triton X-100 for 10 minutes, and blocked with PBS solution containing 3% goat serum albumin for one hour, and then incubated with antibodies against E-cadherin and N-cadherin (1:1000; Abeam, ab10983) for 1.5 hours at room temperature. The cells were then washed with PBST and co-incubated with Alexa Fluor 555 labeled rabbit secondary antibody (4413; CST, USA) or Alexa Fluor 488 labeled murine secondary antibody (4408; CST, USA) for one hour at room temperature in the dark. Cell nuclei were stained with ProLong Gold antifade reagent (P36931; Invitrogen, USA) for 5 minutes, glass slides were covered with pieces of glass, and samples were observed using a laser scanning confocal microscope (Zeiss 710; Germany).

| SMILES | invasion and migration of MDA-MB-231 cells induced by TGF-β1 [1] | phosphorylation of AXL [2] | phosphorylation of downstream signaling protein AKT [2] | expression of E-cadherin [3] | expression of N-cadherin [3] | phosphorylation level of AXL [3] |
| --- | --- | --- | --- | --- | --- | --- |
| CCc1ccc2c(c1)c(=O)c(C(=O)Nc1ccc(Oc3ncnc4cc(OC)c(OC)cc34)c(F)c1)c(C)n2C [TL4800191, N-(4-(6,7-dimethoxyquinazolin-4-yloxy)-3-fluorophenyl)-6-ethyl-1,2-dimethyl-4-oxo-1,4-dihydroquinoline-3-carboxamide] | inhibit the invasion and migration of breast cancer MDA-MB-231 cells induced by TGF-β1 in a dose-dependent manner | significantly inhibit | significantly inhibit | significantly upregulate | down-regulate | inhibit the phosphorylation level of AXL in a dose-dependent manner |
| CCc1ccc2c(c1)c(=O)c(C(=O)Nc1ccc(Oc3ncnc4[nH]cc(-c5ccccc5)c34)c(F)c1)c(C)n2C [TL4800075, 6-ethyl-N-(3-fluoro-4-((5-phenyl-7H-pyrrolo[2,3-d]pyrimidin-4-yl)oxy)phenyl)-1,2-dimethyl-4-oxo-1,4-dihydroquinoline-3-carboxamide] | inhibit the invasion and migration of breast cancer MDA-MB-231 cells induced by TGF-β1 in a dose-dependent manner | significantly inhibit | significantly inhibit | significantly upregulate | down-regulate | inhibit the phosphorylation level of AXL in a dose-dependent manner |
